Data as given in patent US20170253607A1, “LONG-ACTING HIV PROTEASE INHIBITOR” (Shionogi & Co., Ltd., priority 2014, published 2017).

What follows are molecules tested against HIV-1 PR (Human immunodeficiency virus type 1 group M subtype B, UniProt P04585) (assay: HIV-protease inhibitory activity assay (FRET peptide substrate)). Conditions: Test Example 1.
Assay type: biochemical
Method in brief: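 Fluorescence recovery at ex 485/em 535 nm reports cleavage of a quenched FRET peptide (2 μmol/L final) by 0.83 ng enzyme over 60 minutes at room temperature. Buffer was NaAc pH 4.8 with NaCl, EDTA, DTT and Tween 20. IC50 values came from four-parameter logistic regression of % inhibition.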

Compound	IC50 [nM]
COc1ccc(S(=O)(=O)N(CC(C)C)CC(O)C(Cc2ccc(NCc3cc(N4CC(C)(C)C4=O)ccc3-c3sc4c(c3C(=O)O)CC(C)(C)CC4)cc2)NC(=O)OC2COC3(C)OCCC23)cc1 (centres unmarked) [Compound I-728]	2.96
COc1ccc(S(=O)(=O)N(CC(C)C)C[C@@H](O)[C@H](Cc2ccc(OCc3ccccc3-c3sc4c(c3C(N)=O)CC(C)(C)CC4)cc2)NC(=O)O[C@H]2CO[C@@]3(C)OCC[C@@H]23)cc1 [Compound I-20]	1.77
COc1ccc(S(=O)(=O)N(CC(C)C)CC(O)C(Cc2ccc(NCc3ccc(N4CCCCC4)cc3-c3sc4c(c3C(=O)O)CC(C)(C)CC4)cc2)NC(=O)OC2COC3(C)OCCC23)cc1 (centres unmarked) [Compound I-677]	2.32
COc1ccc(S(=O)(=O)N(CC(C)C)CC(O)C(Cc2ccc(OC3CCCN(Cc4sc5c(c4C(=O)O)CC(C)(C)CC5)C3)cc2)NC(=O)OC2COC3(C)OCCC23)cc1 (centres unmarked) [Compound I-198]	1.95
COc1ccc(S(=O)(=O)N(CC(C)C)CC(O)C(Cc2ccc(N(Cc3cccnc3)Cc3ccccc3-c3sc4c(c3C(=O)O)CC(C)(C)CC4)cc2)NC(=O)OC2COC3(C)OCCC23)cc1 (centres unmarked) [Compound I-423]	2.8
COc1ccc(S(=O)(=O)N(CC(C)C)CC(O)C(Cc2ccc(NCc3ccc(CCC(=O)Nc4sc5c(c4C(=O)O)CC(C)(C)CC5)cc3)cc2)NC(=O)OC2COC3(C)OCCC23)cc1 (centres unmarked) [Compound I-439]	3.45
COc1ccc(S(=O)(=O)N(CC(C)C)C[C@@H](O)[C@H](Cc2ccc(NCc3sc4c(c3C(=O)O)CC(C)(C)CC4)cc2)NC(=O)O[C@H]2CO[C@@]3(C)OCC[C@@H]23)cc1 [Compound I-14]	1.7
CC1(C)CCc2sc(-c3ccc(CN(CC(O)C(Cc4ccccc4)NC(=O)OC4COC5(C)OCCC45)S(=O)(=O)c4ccc5ncsc5c4)cc3)c(C(=O)O)c2C1 (centres unmarked) [Compound I-167]	7.1
COc1ccc(S(=O)(=O)N(CC(C)C)CC(O)C(Cc2ccc(OCc3ccccc3-c3nc(C4=CCC(C)(C)CC4)sc3C(=O)O)cc2)NC(=O)OC2COC3OCCC23)cc1 (centres unmarked) [Compound I-820]	0.94
CC(C)CN(CC(O)C(Cc1ccc(NCc2ccccc2C(=O)Nc2sc3c(c2C(=O)O)CC(C)(C)CC3)cc1)NC(=O)OC1COC2(C)OCCC12)S(=O)(=O)c1ccc2ncsc2c1 (centres unmarked) [Compound I-592]	3.19
COc1ccc(S(=O)(=O)N(CC(C)C)CC(O)C(Cc2ccc(NCc3cc(C)ccc3C(=O)Nc3sc4c(c3C(=O)O)CC(C)(C)CC4)cc2)NC(=O)OC2COC3(C)OCCC23)cc1 (centres unmarked) [Compound I-717]	2.77
COc1ccc(S(=O)(=O)N(CC(C)C)CC(O)C(Cc2ccc(OCc3ccccc3-c3ccc4c(c3C(=O)O)CC(C)(C)CC4)cc2)NC(=O)OC2COC3(C)OCCC23)cc1 (centres unmarked) [Compound I-40]	1.9
COc1ccc(S(=O)(=O)N(CC(C)C)CC(O)C(Cc2ccc(NCC3(c4cccc(-c5sc6c(c5C(=O)O)CC(C)(C)CC6)c4)CCCC3)cc2)NC(=O)OC2COC3(C)OCCC23)cc1 (centres unmarked) [Compound I-393]	14.5
COc1ccc(S(=O)(=O)N(CC(C)C)CC(O)C(Cc2ccc(NCc3cnn4ccc(C(=O)Nc5sc6c(c5C(=O)O)CC(C)(C)CC6)nc34)cc2)NC(=O)OC2COC3(C)OCCC23)cc1 (centres unmarked) [Compound I-442]	2.95
COc1ccc(S(=O)(=O)N(CC(C)C)CC(O)C(Cc2ccc(OCc3ccc4sc(-c5ccc(F)cc5)c(C(=O)O)c4c3)cc2)NC(=O)OC2COC3OCCC23)cc1 (centres unmarked) [Compound I-819]	0.72
COc1ccc(S(=O)(=O)N(CC(C)C)CC(O)C(Cc2ccc(NCc3ccccc3-c3ccsc3C(=O)O)cc2)NC(=O)OC2COC3(C)OCCC23)cc1 (centres unmarked) [Compound I-498]	1.83
COc1ccc(S(=O)(=O)N(CC(C)C)CC(O)C(Cc2ccc(NCc3cc(OC)ccc3C(=O)Nc3sc4c(c3C(=O)O)CC(C)(C)CC4)cc2)NC(=O)OC2COC3(C)OCCC23)cc1 (centres unmarked) [Compound I-732]	3.26
COc1ccc(S(=O)(=O)N(CC(C)C)CC(O)C(Cc2ccc(OCc3ccccc3-c3oc4c(c3C(=O)O)CCCC4)cc2)NC(=O)OC2COC3(C)OCCC23)cc1 (centres unmarked) [Compound I-130]	1.12
COc1ccc(S(=O)(=O)N(CC(C)C)CC(O)C(Cc2ccc(NCc3cc(N4CCCCC4=O)ccc3-c3sc4c(c3C(=O)O)CC(C)(C)CC4)cc2)NC(=O)OC2COC3(C)OCCC23)cc1 (centres unmarked) [Compound I-729]	1.64
COc1ccc(S(=O)(=O)N(CC(C)C)CC(O)C(Cc2ccc(NCc3ccccc3-c3c(C(=O)O)cnc4ccsc34)cc2)NC(=O)OC2COC3(C)OCCC23)cc1 (centres unmarked) [Compound I-501]	1.82
COc1ccc(S(=O)(=O)N(CC2CCCC2)CC(O)C(Cc2ccc(OCCn3nc4c(c3C(=O)O)CC(C)(C)CC4)cc2)NC(=O)OC2COC3(C)OCCC23)cc1 (centres unmarked) [Compound I-366]	2.72
COc1ccc(S(=O)(=O)N(CC(C)C)CC(O)C(Cc2ccc(NCc3ccc(OC)c(-c4sc5c(c4C(=O)O)CC(C)(C)CC5)c3)cc2)NC(=O)OC2COC3(C)OCCC23)cc1 (centres unmarked) [Compound I-293]	1.9

Compound	IC50 [nM]
CC(C)CN(CC(O)C(Cc1ccc(OCc2ccc3ccccc3c2C(N)=O)cc1)NC(=O)OC1COC2(C)OCCC12)S(=O)(=O)c1ccc2ncsc2c1 (centres unmarked) [Compound I-162]	0.96
COc1ccc(S(=O)(=O)N(CC(C)C)CC(O)C(Cc2ccc(N(C)CC3CCCCC3C(=O)Nc3sc4c(c3C(=O)O)CC(C)(C)CC4)cc2)NC(=O)OC2COC3(C)OCCC23)cc1 (centres unmarked) [Compound I-616]	4.2
COc1ccc(S(=O)(=O)N(CC(C)C)CC(O)C(Cc2ccc(N(C)Cc3ccc(OC)cc3C(=O)Nc3sc4c(c3C(=O)O)CC(C)(C)CC4)cc2)NC(=O)OC2COC3(C)OCCC23)cc1 (centres unmarked) [Compound I-683]	5.74
COc1ccc(S(=O)(=O)N(CC(C)C)CC(O)C(Cc2ccc(-c3ccccc3-c3sc4c(c3C(=O)O)CC(C)(C)CC4)cc2)NC(=O)OC2COC3(C)OCCC23)cc1 (centres unmarked) [Compound I-193]	3.48
CC(C)CN(CC(O)C(Cc1ccc(OCc2ccccc2-c2sc3c(c2C(=O)O)CC(C)(C)CC3)cc1)NC(=O)OC1COC2(C)OCCC12)S(=O)(=O)c1ccc2nc(N(C)CCc3ccccc3)sc2c1 (centres unmarked) [Compound I-794]	38.4
COc1ccc(S(=O)(=O)N(CC(C)C)CC(O)C(Cc2ccc(NCc3cc(C)cc(-c4sc5c(c4C(=O)O)CC(C)(C)CC5)c3)cc2)NC(=O)OC2COC3(C)OCCC23)cc1 (centres unmarked) [Compound I-549]	1.55
COc1ccc(S(=O)(=O)N(CC(C)C)CC(O)C(Cc2ccc(N(C)C(=O)Nc3ccccc3-c3sc4c(c3C(=O)O)CC(C)(C)CC4)cc2)NC(=O)OC2COC3(C)OCCC23)cc1 (centres unmarked) [Compound I-269]	3.41
COc1ccc(S(=O)(=O)N(CC(C)C)CC(O)C(Cc2ccc(N(CCC(C)C)Cc3ccccc3-c3sc4c(c3C(=O)O)CC(C)(C)CC4)cc2)NC(=O)OC2COC3(C)OCCC23)cc1 (centres unmarked) [Compound I-461]	7.09
COc1ccc(S(=O)(=O)N(CC(C)C)CC(O)C(Cc2ccc(N(Cc3ccccc3-c3sc4c(c3C(=O)O)CC(C)(C)CC4)CC3CCCCC3)cc2)NC(=O)OC2COC3(C)OCCC23)cc1 (centres unmarked) [Compound I-42]	23.4
COc1ccc(S(=O)(=O)N(CC(C)C)CC(O)C(Cc2ccc(NCc3cccc(F)c3C(=O)Nc3sc4c(c3C(=O)O)CC(C)(C)CC4)cc2)NC(=O)OC2COC3(C)OCCC23)cc1 (centres unmarked) [Compound I-749]	2.33
CC1(C)CCc2sc(-c3ccc(C(F)(F)F)cc3CNc3ccc(CC(NC(=O)OC4COC5OCCC45)C(O)CN(CC4CCC4)S(=O)(=O)c4ccc5c(c4)OCO5)cc3)c(C(=O)O)c2C1 (centres unmarked) [Compound I-875]	6.78
COc1ccc(S(=O)(=O)N(CC(C)C)CC(O)C(Cc2ccc(CN(C)Cc3ccccc3-c3sc4c(c3C(=O)O)CC(C)(C)CC4)cc2)NC(=O)OC2COC3(C)OCCC23)cc1 (centres unmarked) [Compound I-250]	2.2
COc1ccc(S(=O)(=O)N(CC(C)C)CC(O)C(Cc2ccc(NCc3cc(-c4sc5c(c4C(=O)O)CC(C)(C)CC5)co3)cc2)NC(=O)OC2COC3(C)OCCC23)cc1 (centres unmarked) [Compound I-284]	2.98
COc1ccc(S(=O)(=O)N(CC(C)C)CC(O)C(Cc2ccc(N3CCc4c(-c5sc6c(c5C(=O)O)CC(C)(C)CC6)cccc43)cc2)NC(=O)OC2COC3(C)OCCC23)cc1 (centres unmarked) [Compound I-300]	4.78
CCCCCCCCCN(Cc1ccccc1-c1sc2c(c1C(=O)O)CC(C)(C)CC2)c1ccc(CC(NC(=O)OC2COC3(C)OCCC23)C(O)CN(CC(C)C)S(=O)(=O)c2ccc(OC)cc2)cc1 (centres unmarked) [Compound I-458]	51
COc1ccc(S(=O)(=O)N(CC(C)C)CC(O)C(Cc2ccc(OCc3ccccc3-c3ccc4c(c3)C(=O)C(C3CCCCC3)C4=O)cc2)NC(=O)OC2COC3(C)OCCC23)cc1 (centres unmarked) [Compound I-72]	1.45
COc1ccc(S(=O)(=O)N(CC(C)C)CC(O)C(Cc2ccc(N(C)Cc3ccccc3-c3ccc(Nc4sc5c(c4C(=O)O)CC(C)(C)CC5)nc3)cc2)NC(=O)OC2COC3(C)OCCC23)cc1 (centres unmarked) [Compound I-776]	6.4
COc1ccc(S(=O)(=O)N(CC(C)C)CC(O)C(Cc2ccc(N(C)CC3CCCCC3C(=O)Nc3sc4c(c3C(=O)O)CC(C)(C)CC4)cc2)NC(=O)OC2COC3(C)OCCC23)cc1 (centres unmarked) [Compound I-622]	3.71
CCCCCCCCCCCCCC(=O)Nc1ccc(CN(C)c2ccc(C[C@H](NC(=O)OC3CO[C@@]4(C)OCC[C@@H]34)[C@H](O)CN(CC(C)C)S(=O)(=O)c3ccc(OC)cc3)cc2)c(-c2sc3c(c2C(=O)O)CC(C)(C)CC3)c1 (some centres unmarked) [Compound I-910]	7.84
COc1ccc(S(=O)(=O)N(CC(C)C)CC(O)C(Cc2ccc(NCc3ncccc3C(=O)Nc3sc4c(c3C(=O)O)CC(C)(C)CC4)cc2)NC(=O)OC2COC3(C)OCCC23)cc1 (centres unmarked) [Compound I-687]	2.48
COc1ccc(S(=O)(=O)N(CC(C)C)CC(O)C(Cc2ccc(NCc3ccc(C#N)cc3-c3sc4c(c3C(=O)O)CC(C)(C)CC4)cc2)NC(=O)OC2COC3(C)OCCC23)cc1 (centres unmarked) [Compound I-565]	1.75
COc1ccc(S(=O)(=O)N(CC(C)C)CC(O)C(Cc2ccc(NCC3CCCCC3C(=O)Nc3sc4c(c3C(=O)O)CC(C)(C)CC4)cc2)NC(=O)OC2COC3(C)OCCC23)cc1 (centres unmarked) [Compound I-615]	3.37
